Measured values reported in US20140039044A1, “Hydroxylated Polymethoxyflavone Compositions” (WLLGEN, INC., priority 2006, published 2014).

Key:
[1] = test system: Ca^2+ influx in MCF-7 cells; assay: Ca2+ influx (Mn2+ entry rate, fura-2 quench); assay type: cell-based, human; conditions: for Ca^2+ influx, in words: 25 μM; for Increase of Ca^2+ influx (Ca^2+ entry rates): compound 4: 6.25 μM, compound 5: 12.5 μM
Procedure: To evaluate Ca^2+ influx from the extracellular space, the Mn^2+ entry rate, as a reporter of Ca^2+ influx, was measured. The images were recorded at excitation of 360 nm (the fura-2 isosbestic point) and 2 mM of extracellular Mn^2+. The rates of Ca^2+ entry were estimated from the slope of the liner portion of curves of the fura-2 fluorescence quench by Mn^2+. To evaluate Ca^2+ release from the intracellular stores, cells grown on coverslips were placed in D-PBS, and the mobilizer of the endoplasmic reticulum Ca^2+-stores, thapsigargin (1 μM), was added after recording the basal [Ca^2+]i. The peak values of the [Ca^2+]i increase, indicating the filling level of the Ca^2+-stores, were measured with fura-2.
To investigate mechanism of a sustained increase in [Ca^2+]i after treatment with PMFs, the rates of the background Ca^2+ influx from the extracellular space and the magnitudes of Ca^2+ release from the endoplasmic reticulum stores with thapsigargin were measured in the treated cells using methods described above.
In FIG. 11A through 11D, the concentration for each PMF was as follows: compound 4: 6.25 μM; compound 5: 12.5 μM; compound 6: 25 μM; and compound 7: 25 μM. […] The Ca^2+ entry rates (C, D) are presented as tangents of the linear portions of the fura-2 quench curves. Data in panel C are presented as means±SE for control cells or cells treated with PMFs 3 days (black bars) or 6 days (gray bars). […] Mn^2+ or thapsigargin was added after recording the basal level of fluorescence or basal [Ca^2+]i for 30-60 s.

[2] = test system: COX-2 mRNA; assay: LPS-induced COX-2 mRNA expression by real-time PCR; assay type: cell-based, mouse; conditions: RAW264.7 macrophages, 100 ng/mL LPS, 20 μM, relative to G3PDH, FIG. 6
Procedure: Bacterial lipopolysaccharide (LPS)-induced COX-2 expression was monitored in RAW264.7 macrophages, as previously described. Briefly, COX-2 expression was determined in untreated cells and cells treated with 100 ng/mL LPS either in the absence or the presence of 20 μM 5-hydroxy-3,6,7,8,3′,4′-hexamethoxyflavone. COX-2 mRNA levels were determined by real-time PCR where the values obtained were relative to expression of glyceraldehyde-3-phosphate dehydrogenase (G3PDH).

[3] = test system: LPS-induced NFκB promoter activities in RAW264.7 macrophages; assay: NFκB-dependent luciferase reporter assay; assay type: cell-based, mouse; conditions: FIG. 5
Procedure: RAW264.7 cells were seeded in […]. When the cells were confluent, the medium was replaced with serum-free Opti-MEM (Gibco-BRL). Then the cells were transfected with the p-NFκB-Luc plasmid reporter gene using LIPOFECTAMINE™ reagent (Invitrogen). After 6 h incubation, the medium was replaced with complete medium. After 24 h, the cells were trypsinized and equal numbers of cells were plated in 24 well tissue culture plates for 6 h. Cells were then treated with LPS (100 ng/ml) alone or with PMFs (10 or 30 μM) for 12 h. Each well was wash twice with cold PBS and harvested in 100 μl serum-free DMEM, and the luciferase activity was assayed by LUCILITE luciferase reporter gene assay kit (PerkinElamer). Luminescence was measured in a Luminescence counter (Molecular Devices, LMaxII) in single photon counting mode for 2 sec/well, following 5 min adaptation in the dark.
To confirm whether selected PMFs inhibited NFκB binding activity in LPS-induced macrophages, assessment of luciferase expression in cells transiently transfected with NFκB-dependent luciferase reporter plasmid was assessed according to the procedures described above in Section 8.4.

[4] = test system: COX-2; assay: Western blot of LPS-induced COX-2 protein expression; assay type: cell-based, mouse; conditions: LPS-activated macrophages, 30 μM, 24 h, FIG. 4
Procedure: (§1) Proteins were isolated from cells after treatment with test compounds for 24 h. Total protein was extracted by adding 200 μL of gold lysis buffer (50 mM Tris-HCl, pH 7.4; 1 mM NaF; 150 mM NaCl; 1 mM EGTA; 1 mM phenylmethanesulfonyl fluoride; 1% NP-40; and 10 μg/mL leupeptin) to the cell pellets, which were kept on ice for 30 minutes, followed by centrifugation at 10,000×g for 30 min at 4° C. The protein concentrations of the cytosolic fraction (supernatant) were measured by BIO-RAD Protein Assay (Bio-Rad Laboratories, Munich, Germany). Samples containing 50 μg of protein were electrophoretically separated by SDS-PAGE and transferred to PVDF membrane (Millipore Corp., Bedford, Mass.) using standard procedures. See Burnette (1981) Anal. Biochem. 112:195-203. […]
(§2) Western blot analysis of inhibition of LPS-induced iNOS and COX-2 protein expression by PMFs was analyzed, following procedures described above. […] Equal amounts of total proteins (50 μg) were subjected to 10% SDS-PAGE, and expression of iNOS, COX-2 and β-actin protein was detected by Western blot using specific antibodies.

[5] = test system: iNOS; assay: Western blot of LPS-induced iNOS protein expression; assay type: cell-based, mouse; conditions: LPS-activated macrophages, 30 μM, 24 h, FIG. 4
Procedure: as §1, §2

SMILES: COc1ccc(-c2oc3c(OC)c(OC)c(OC)c(OC)c3c(=O)c2OC)cc1OC [D, 3,5,6,7,8,3,4-heptamethoxyflavone, reference compound]
- Ca^2+ influx, in words [1]: did not significantly increase Ca^2+ influx

SMILES: COc1ccc(-c2cc(=O)c3c(OC)c(OC)c(OC)cc3o2)cc1OC [Compound 7, 5,6,7,3′,4′-pentamethoxyflavone, reference compound]
- Ca^2+ influx, in words [1]: did not significantly increase Ca^2+ influx

SMILES: COc1ccc(-c2oc3c(OC)c(OC)c(OC)c(O)c3c(=O)c2OC)cc1OC [Compound C, 5-hydroxy-3,6,7,8,3′,4′-hexamethoxyflavone]
- Increase of Ca^2+ influx (Ca^2+ entry rates) [1]: 1.8 fold
- Inhibition of LPS-induced COX-2 mRNA expression, in words [2]: inhibits LPS-induced COX-2 mRNA expression

SMILES: COc1c(OC)c(OC)c2c(=O)cc(-c3ccc(O)c(O)c3)oc2c1OC [H, 3′,4′-dihydroxy-5,6,7,8-tetramethoxyflavone]
- Rank of inhibitory potency on LPS-induced NFκB transcriptional activity ([3]; RAW264.7, 30 μM): greatest inhibitory potency of PMFs tested
- Inhibition of LPS-induced NFκB transcriptional activity, in words ([3]; RAW264.7, LPS 100 ng/ml, PMF 10 or 30 μM, 12 h): inhibited LPS-induced NFκB transcriptional activity in a concentration-dependent manner
- Inhibition of COX-2 expression (Western blot), in words [4]: most potent inhibitor of COX-2 expression

SMILES: COc1ccc(-c2cc(=O)c3c(O)c(OC)c(OC)c(OC)c3o2)cc1O [Compound K, 5,3′-dihydroxy-6,7,8,4′-tetramethoxyflavone]
- Inhibition of iNOS expression (Western blot), in words [5]: most potent inhibitor of iNOS expression

SMILES: COc1ccc(-c2cc(=O)c3c(OC)c(OC)c(OC)cc3o2)cc1O [Compound 5, 3′-hydroxy-5,6,7,4′-tetramethoxyflavone]
- Increase of Ca^2+ influx (Ca^2+ entry rates) [1]: 1.6 fold
